Tests used:
RNF12 SR-motif = RNF12 SR-motif phosphorylation in mouse cortical neurons by phos-tag immunoblotting; type: cell-based; settings: mature mouse cortical neurons cultured for 21 days, 10 μM, 4 h
Method: Figure 7 The SRPK-RNF12 Signaling Pathway Operates in Neurons (A) Primary cortical neurons isolated from E16.5 C57BL6 mice were cultured for the indicated number of days in vitro (DIV) and RNF12, SRPK1, and SRPK2, synaptophysin and actin levels analyzed via immunoblotting alongside the indicated mESC lines. (B) Cortical neurons were cultured for 21 days and treated with 10 μM MG132 and protein levels analyzed by immunoprecipitation and immunoblotting (REX1) and immunoblotting (RNF12 and ERK1/2). (C) Cortical neurons were cultured in vitro for the indicated number of days (DIV) and RNF12 and MAP2 neuron specific marker analyzed by immunofluorescence. Scale bar: 20 μm. (D) RNF12 SR-motif phosphorylation during in vitro mouse cortical neuron maturation was analyzed via phos-tag immunoblotting for RNF12. […] Synaptophysin and actin levels were determined by immunoblotting. […] Synaptophysin and actin levels were determined by immunoblotting. (F) The SRPK-RNF12-REX1 signaling pathway regulates neural gene expression and is disrupted in intellectual disability disorders. SRPK phosphorylates the RNF12 SR-motif to promote REX1 ubiquitylation and proteasomal degradation, which acts as a “brake” for neural gene expression in self-renewing pluripotent stem cells. In intellectual disability, inactivating mutations in SRPKs or RNF12 lead to REX1 accumulation and aberrant induction of neural genes. […]

SRPK2 = SRPK2 (Homo sapiens, UniProt P78362); assay: Inhibition of RNF12 phosphorylation in vitro by SRPK2 (phospho-Ser214 immunoblot, dose-response); type: biochemical; settings: only this inhibitor of SRPIN340, SPHINX31, SRPKIN-1
Method: Cells were lysed, and 1.5 mg of protein immunoprecipitated with 2 μg of SRPK1 or SRPK2 antibodies (BD Biosciences). Immunoprecipitates were then washed with lysis buffer supplemented with 500 mM NaCl and half of the sample was resuspended in loading buffer. The remainder was subjected to in vitro phosphorylation assay containing 0.5 μg RNF12 and 2 mM ATP in kinase buffer (50 mM Tris-HCl [pH 7.5], 0.1 mM EGTA, 10 mM MgCl2, 2 mM DTT) and incubated at 30°C for 30 min. […] For radioactive in vitro kinase assays, reactions were supplemented with 1 μCi γ-^32P ATP. Reactions were incubated at 30°C for 30 min in presence or absence of inhibitor as indicated and samples subjected to polyacrylamide electrophoresis and immunoblot or Coomassie blue staining and signal detected via ECL, infrared detection or autoradiography.
Supplemental Figure Legends
(Related to Figure 1). (A) Wild-type (WT) mESCs were analysed for protein copy number by absolute quantitative proteomics. […]
Data are represented as mean ± S.E.M. (n=3). […] ND = not detected. (B) Inhibition of RNF12 phosphorylation in vitro by SRPK1 and SRPK2 in the presence of varying concentrations of the indicated SRPK inhibitors was determined by immunoblotting for RNF12 phospho-Ser214 (Left). […] Immunoblots were quantified to generate SRPK inhibitor dose-response curves for inhibition of RNF12 phosphorylation by SRPK1 and SRPK2 in vitro (Right). […]

Sequence of SRPK2 (P78362 1-699 isoform P78362-2): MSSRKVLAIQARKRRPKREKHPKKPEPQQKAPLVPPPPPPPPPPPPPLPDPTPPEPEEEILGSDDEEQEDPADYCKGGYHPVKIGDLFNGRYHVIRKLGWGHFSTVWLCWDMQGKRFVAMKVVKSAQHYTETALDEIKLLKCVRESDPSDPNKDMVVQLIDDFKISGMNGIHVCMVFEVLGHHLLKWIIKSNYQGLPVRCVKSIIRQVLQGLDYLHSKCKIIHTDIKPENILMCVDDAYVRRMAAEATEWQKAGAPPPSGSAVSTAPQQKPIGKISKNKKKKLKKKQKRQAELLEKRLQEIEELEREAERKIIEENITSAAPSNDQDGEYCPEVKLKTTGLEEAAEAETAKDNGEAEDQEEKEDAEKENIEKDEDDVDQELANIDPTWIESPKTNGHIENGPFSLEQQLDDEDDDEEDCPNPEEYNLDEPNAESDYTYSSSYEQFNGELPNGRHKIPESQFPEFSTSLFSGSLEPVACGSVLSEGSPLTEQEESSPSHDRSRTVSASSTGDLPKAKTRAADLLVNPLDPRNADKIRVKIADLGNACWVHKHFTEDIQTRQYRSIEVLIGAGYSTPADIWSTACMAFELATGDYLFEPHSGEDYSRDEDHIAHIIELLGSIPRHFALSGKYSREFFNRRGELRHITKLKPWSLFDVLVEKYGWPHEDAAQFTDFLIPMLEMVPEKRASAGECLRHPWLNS

For `CCc1cc2c(cc1-c1cccc(S(=O)(=O)F)c1)C(C)(C)c1[nH]c3cc(C#N)ccc3c1C2=O` [SRPKIN-1], the “RNF12 phosphorylation (phos-tag)” value (RNF12 SR-motif) was “suppressed RNF12 phosphorylation” and the “inhibition of SRPK2” value (SRPK2) was “potently inhibited”.
